Key:
cucumber = assay: Long term growth and yield study after JA seed treatment, cucumber; format: in vivo; conditions: seed treatment 1.5 or 3.0 mM JA, weekly harvests
Excerpt: (§1) Data are means of 8 replicate plants+/−standard error of the mean, and the line is a fitted growth response.

[1] = tested on: Manduca sexta (tobacco hornworm); assay: JA seed treatment, tomato plants challenged with Manduca sexta caterpillars; format: in vivo; conditions: tomato cv. Carousel, seed treatment 1.5 mM JA, 4 days feeding
Procedure: Tomato, pepper, maize and wheat seeds were treated with 3 mM JA or 1.5 mM JA solutions or with 3 mM methyl jasmonate (MeJA) or with deionised water containing 42.8 mM ethanol (control) by full submersion of up to 40 seeds in a Petri dish of solution wrapped in foil for a period of 24 hours at 4° C. in a fridge. A temperature of 4° C. was used both to prevent degradation of the jasmonic acid solutions and to prevent germination of the seeds.
Tomato plants were then challenged with Tetranychus urticae (two-spotted spider mite) which were allowed to feed for 9 days, Manduca sexta (tobacco hornworm) caterpillars which were allowed to feed for 4 days or Myzus persicae (aphid), which were allowed to feed for 10 or 12 days. In each case these organisms were restricted to the plant on which they had originally been placed. Pepper plants were challenged with Myzus persicae (aphid), which were allowed to feed for 2 weeks. […]
The effect of Manduca sexta or Spodoptera exempta on plants was determined by measurement of the leaf area eaten, measured using a leaf area meter.
Seeds of a UK commercial F1 hybrid tomato variety (cv. Carousel) were treated with 1.5 mM jasmonic acid (JA), and plants grown in conditions appropriate to this crop (as described under Example 1). […] Caterpillars were allowed to feed on the plants for four days and the area of grazed leaves was then measured. […]

tomato (cv. Carousel) = assay: Long term growth and yield study after JA seed treatment, tomato; format: in vivo, Solanum lycopersicum
Excerpt: as §1

[2] = tomato cv. Carousel, JA seed treatment vs control, 8 replicate plants

Vegetative or reproductive growth, or commercial yield (cucumber): no significant effect | Fruit dry weight at each weekly harvest (tomato (cv. Carousel); [2]): no significant effects | Number of fruit at each weekly harvest (tomato (cv. Carousel); [2]): no significant effects | Plant height at each weekly harvest (tomato (cv. Carousel); [2]): no significant effects | Vegetative or reproductive growth, or commercial yield (tomato (cv. Carousel); tomato, seed treatment 1.5 or 3.0 mM JA, weekly harvests): no significant effect
Compound: CC/C=C\C[C@H]1C(=O)CC[C@@H]1CC(=O)O [JA, jasmonic acid]
Caterpillar growth, less than those feeding on controls [1]: 20% | Leaf area remaining after grazing, compared with controls ([1]; challenged 8 weeks after seed treatment): significantly higher

Source: patent US8507756B2, “Plant protection” (Plant Bioscience Limited, priority 2007, dated 2013)
